In patent publication US8148373B2, “Compounds” (AstraZeneca AB, priority 2008, dated 2012):
Counter-ions that a name gives are not always drawn.

Legend:
[1] = molecular target: T1, human muscarinic acetylcholine M3 receptor (M3-ACh) (Homo sapiens, UniProt P20309); test: Muscarinic 3 Receptor Binding Assay ([3H]NMS competition, SPA); conditions: [3H]NMS 0.1 nM, CHO-K1 cell membranes, 16 hours at room temperature; read-out: M3 pIC50 (converted)
T1 construct: expressed in transfected cells; host or cells: CHO-K1 (Chinese Hamster Ovary) cell membranes
T1 sequence (P20309 whole entry): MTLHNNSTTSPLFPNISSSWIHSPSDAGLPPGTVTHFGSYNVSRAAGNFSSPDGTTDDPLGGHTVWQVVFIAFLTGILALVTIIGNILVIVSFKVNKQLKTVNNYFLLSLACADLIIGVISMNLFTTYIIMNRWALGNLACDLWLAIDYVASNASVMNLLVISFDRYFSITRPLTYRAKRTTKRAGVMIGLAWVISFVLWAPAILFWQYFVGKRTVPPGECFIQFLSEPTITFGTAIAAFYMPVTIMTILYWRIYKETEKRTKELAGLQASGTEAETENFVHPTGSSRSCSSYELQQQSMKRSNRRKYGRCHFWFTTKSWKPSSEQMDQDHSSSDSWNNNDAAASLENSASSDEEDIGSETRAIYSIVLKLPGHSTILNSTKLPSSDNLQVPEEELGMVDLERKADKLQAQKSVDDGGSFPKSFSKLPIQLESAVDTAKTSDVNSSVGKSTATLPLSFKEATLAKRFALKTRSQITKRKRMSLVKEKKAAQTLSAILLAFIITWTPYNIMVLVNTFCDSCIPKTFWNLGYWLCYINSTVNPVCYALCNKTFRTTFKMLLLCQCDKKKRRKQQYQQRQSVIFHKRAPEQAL
In short: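 Competition SPA binding of 0.1 nM [3H]NMS (quarter Kd) to membranes from CHO-K1 cells expressing human M3, in 20 mM HEPES pH 7.4, 5 mM MgCl2, 1% DMSO. Incubated 16 h at room temperature; non-specific binding with 1 µM atropine. pIC50 from 50% reduction of specific binding.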

[2] = molecular target: T2, Adrenergic β2 (H292 cells) (Homo sapiens, UniProt P07550); test: Assay for Adrenergic β2 Mediated cAMP Production (concentration response, AlphaScreen cAMP detection); format: cell-based; conditions: for EC50: cAMP production, 60 minutes at room temperature, 300 μM rolipram, read-out: β2 pEC50 (converted); for β2 Intrinsic activity: fraction relative to the maximum activity determined for formoterol
T2 construct: endogenous in cells; host or cells: H292 cells
T2 sequence (P07550 whole entry): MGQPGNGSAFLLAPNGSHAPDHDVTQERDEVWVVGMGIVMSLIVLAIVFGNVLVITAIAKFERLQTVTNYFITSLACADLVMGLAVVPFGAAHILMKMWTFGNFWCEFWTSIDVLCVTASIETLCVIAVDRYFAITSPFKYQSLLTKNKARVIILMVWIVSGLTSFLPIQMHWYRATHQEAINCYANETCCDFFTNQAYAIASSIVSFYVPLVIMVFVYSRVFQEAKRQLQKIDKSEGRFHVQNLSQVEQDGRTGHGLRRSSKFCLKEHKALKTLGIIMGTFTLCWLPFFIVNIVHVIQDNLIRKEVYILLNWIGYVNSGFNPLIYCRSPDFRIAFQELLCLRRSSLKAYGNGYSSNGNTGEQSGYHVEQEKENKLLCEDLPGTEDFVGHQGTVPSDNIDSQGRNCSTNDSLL
In short: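 Intrinsic activity is relative to the per-experiment formoterol maximum, with pEC50 from a four-parameter logistic fit of cAMP levels quantified by AlphaScreen against standards. Cells (H292) got 300 μM rolipram for 10 min, then compound for 60 min at room temperature, 1% DMSO final.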

SMILES	IC50 [1] [nM]	EC50 [2] [nM]	β2 Intrinsic activity [2]
CCc1cc(C(=O)N2CCOC3(CCN(Cc4cc(F)cc(CCNC[C@H](O)c5ccc(O)c6[nH]c(=O)sc56)c4)CC3)C2)cs1 [Example 93, (R)-7-(2-(3-((4-(5-Ethylthiophene-3-carbonyl)-1-oxa-4,9-diazaspiro[5.5]undecan-9-yl)methyl)-5-fluorophenethylamino)-1-hydroxyethyl)-4-hydroxybenzo[d]thiazol-2(3H)-one ditrifluoroacetate]	2.51	2.51	0.8
Cc1nc(C(=O)N2CCOC3(CCN(CCCOc4cccc(CNC[C@H](O)c5ccc(O)c6[nH]c(=O)ccc56)c4)CC3)C2)cs1 [Example 95, (R)-8-Hydroxy-5-(1-hydroxy-2-(3-(3-(4-(2-methylthiazole-4-carbonyl)-1-oxa-4,9-diazaspiro[5.5]undecan-9-yl)propoxy)benzylamino)ethyl)quinolin-2(1H)-one ditrifluoroacetate]	1.58	> 3200	NV* (inactive up to a max concentration of 3.2 μM of test compound)
Cc1nc(C(=O)N2CCOC3(CCN(Cc4cccc(CNC[C@H](O)c5ccc(O)c6[nH]c(=O)ccc56)c4)CC3)C2)cs1 [Example 96, (R)-8-Hydroxy-5-(1-hydroxy-2-(3-((4-(2-methylthiazole-4-carbonyl)-1-oxa-4,9-diazaspiro[5.5]undecan-9-yl)methyl)benzylamino)ethyl)quinolin-2(1H)-one ditrifluoroacetate]	0.251	> 3200	NV* (inactive up to a max concentration of 3.2 μM of test compound)
Cc1nc(C(=O)N2CCOC3(CCN(CCOc4cc(C)c(CNC[C@H](O)c5ccc(O)c6[nH]c(=O)ccc56)cc4C)CC3)C2)cs1 [Example 97, (R)-5-(2-(2,5-Dimethyl-4-(2-(4-(2-methylthiazole-4-carbonyl)-1-oxa-4,9-diazaspiro[5.5]undecan-9-yl)ethoxy)benzylamino)-1-hydroxyethyl)-8-hydroxyquinolin-2(1H)-one ditrifluoroacetate]	6.31	> 3160	1.5
CCc1cc(C(=O)N2CCOC3(CCN(Cc4ccc(F)c(CCNC[C@H](O)c5ccc(O)c6[nH]c(=O)sc56)c4)CC3)C2)cs1 [Example 99, (R)-7-(2-(5-((4-(5-Ethylthiophene-3-carbonyl)-1-oxa-4,9-diazaspiro[5.5]undecan-9-yl)methyl)-2-fluorophenethylamino)-1-hydroxyethyl)-4-hydroxybenzo[d]thiazol-2(3H)-one ditrifluoroacetate]	1.58	7.94	0.8
CC(C)c1nc(C(=O)N2CCOC3(CCN(CCCCCCSCCNC[C@H](O)c4ccc(O)c5[nH]c(=O)sc45)CC3)C2)cs1 [Example 101, (R)-4-Hydroxy-7-(1-hydroxy-2-(2-(6-(4-(2-isopropylthiazole-4-carbonyl)-1-oxa-4,9-diazaspiro[5.5]undecan-9-yl)hexylthio)ethylamino)ethyl)benzo[d]thiazol-2(3H)-one formate]	0.316	158	1
Cc1cc(C(=O)N2CCOC3(CCN(CCOc4ccc(CNC[C@H](O)c5ccc(O)c6[nH]c(=O)sc56)cc4)CC3)C2)cs1 [Example 104, (R)-4-Hydroxy-7-(1-hydroxy-2-(4-(2-(4-(5-methylthiophene-3-carbonyl)-1-oxa-4,9-diazaspiro[5.5]undecan-9-yl)ethoxy)benzylamino)ethyl)benzo[d]thiazol-2(3H)-one formate]	3.16	79.4	0.9
Cc1cc(C(=O)N2CCOC3(CCN(CCCCCCCCCNC[C@H](O)c4ccc(O)c5[nH]c(=O)sc45)CC3)C2)cs1 [Example 105, (R)-4-Hydroxy-7-(1-hydroxy-2-(9-(4-(5-methylthiophene-3-carbonyl)-1-oxa-4,9-diazaspiro[5.5]undecan-9-yl)nonylamino)ethyl)benzo[d]thiazol-2(3H)-one formate]	0.126	15.8	0.8
O=C(c1nc2ccccc2s1)N1CCOC2(CCN(CCCCCCCCCNC[C@H](O)c3ccc(O)c4[nH]c(=O)sc34)CC2)C1 [Example 107, (R)-7-(2-(9-(4-(Benzo[d]thiazole-2-carbonyl)-1-oxa-4,9-diazaspiro[5.5]undecan-9-yl)nonylamino)-1-hydroxyethyl)-4-hydroxybenzo[d]thiazol-2(3H)-one formate]	6.31	39.8	0.9
CC(C)c1nc(C(=O)N2CCOC3(CCN(CCOc4ccc(CNC[C@H](O)c5ccc(O)c6[nH]c(=O)sc56)cc4)CC3)C2)cs1 [Example 108, (R)-4-Hydroxy-7-(1-hydroxy-2-(4-(2-(4-(2-isopropylthiazole-4-carbonyl)-1-oxa-4,9-diazaspiro[5.5]undecan-9-yl)ethoxy)benzylamino)ethyl)benzo[d]thiazol-2(3H)-one formate]	3.98	126	0.9
Cc1ccc(C(=O)N2CCOC3(CCN(CCCCCCCCCNC[C@H](O)c4ccc(O)c5[nH]c(=O)sc45)CC3)C2)s1 [Example 111, (R)-4-Hydroxy-7-(1-hydroxy-2-(9-(4-(5-methylthiophene-2-carbonyl)-1-oxa-4,9-diazaspiro[5.5]undecan-9-yl)nonylamino)ethyl)benzo[d]thiazol-2(3H)-one formate]	0.794	31.6	0.8

Second part, the compound after the results:

IC50 [1] [nM]	EC50 [2] [nM]	β2 Intrinsic activity [2]	SMILES
12.6	1260	0.7	Cc1nc(C(=O)N2CCOC3(CCN(CCOc4cccc(CNC[C@H](O)c5ccc(O)c6[nH]c(=O)ccc56)c4)CC3)C2)cs1 [Example 94, (R)-8-Hydroxy-5-(1-hydroxy-2-(3-(2-(4-(2-methylthiazole-4-carbonyl)-1-oxa-4,9-diazaspiro[5.5]undecan-9-yl)ethoxy)benzylamino)ethyl)quinolin-2(1H)-one ditrifluoroacetate]
1.26	2000	0.4	Cc1nc(C(=O)N2CCOC3(CCN(CCc4ccc(CNC[C@H](O)c5ccc(O)c6[nH]c(=O)ccc56)s4)CC3)C2)cs1 [Example 98, (R)-8-Hydroxy-5-(1-hydroxy-2-((5-(2-(4-(2-methylthiazole-4-carbonyl)-1-oxa-4,9-diazaspiro[5.5]undecan-9-yl)ethyl)thiophen-2-yl)methylamino)ethyl)quinolin-2(1H)-one ditrifluoroacetate]
1.58	5.01	0.9	CCc1cc(C(=O)N2CCOC3(CCN(Cc4cc(CCNC[C@H](O)c5ccc(O)c6[nH]c(=O)sc56)ccc4F)CC3)C2)cs1 [Example 100, (R)-7-(2-(3-((4-(5-Ethylthiophene-3-carbonyl)-1-oxa-4,9-diazaspiro[5.5]undecan-9-yl)methyl)-4-fluorophenethylamino)-1-hydroxyethyl)-4-hydroxybenzo[d]thiazol-2(3H)-one ditrifluoroacetate]
1	200	0.9	CC(C)c1nc(C(=O)N2CCOC3(CCN(CCCCCC(C)(C)CNC[C@H](O)c4ccc(O)c5[nH]c(=O)sc45)CC3)C2)cs1 [Example 102, (R)-4-Hydroxy-7-(1-hydroxy-2-(7-(4-(2-isopropylthiazole-4-carbonyl)-1-oxa-4,9-diazaspiro[5.5]undecan-9-yl)-2,2-dimethylheptylamino)ethyl)benzo[d]thiazol-2(3H)-one formate]
1	251	1	CC(C)c1nc(C(=O)N2CCOC3(CCN(CCCCCCCC(C)(C)CNC[C@H](O)c4ccc(O)c5[nH]c(=O)sc45)CC3)C2)cs1 [Example 103, (R)-4-Hydroxy-7-(1-hydroxy-2-(9-(4-(2-isopropylthiazole-4-carbonyl)-1-oxa-4,9-diazaspiro[5.5]undecan-9-yl)-2,2-dimethylnonylamino)ethyl)benzo[d]thiazol-2(3H)-one formate]
200	100	0.8	O=C(c1nc2ccccc2s1)N1CCOC2(CCN(CCOc3ccc(CNC[C@H](O)c4ccc(O)c5[nH]c(=O)sc45)cc3)CC2)C1 [Example 106, (R)-7-(2-(4-(2-(4-(Benzo[d]thiazole-2-carbonyl)-1-oxa-4,9-diazaspiro[5.5]undecan-9-yl)ethoxy)benzylamino)-1-hydroxyethyl)-4-hydroxybenzo[d]thiazol-2(3H)-one formate]
0.2	7.94	0.9	CC(C)c1nc(C(=O)N2CCOC3(CCN(CCCCCCCCCNC[C@H](O)c4ccc(O)c5[nH]c(=O)sc45)CC3)C2)cs1 [Example 109, (R)-4-Hydroxy-7-(1-hydroxy-2-(9-(4-(2-isopropylthiazole-4-carbonyl)-1-oxa-4,9-diazaspiro[5.5]undecan-9-yl)nonylamino)ethyl)benzo[d]thiazol-2(3H)-one formate]
20	63.1	0.8	Cc1ccc(C(=O)N2CCOC3(CCN(CCOc4ccc(CNC[C@H](O)c5ccc(O)c6[nH]c(=O)sc56)cc4)CC3)C2)s1 [Example 110, (R)-4-Hydroxy-7-(1-hydroxy-2-(4-(2-(4-(5-methylthiophene-2-carbonyl)-1-oxa-4,9-diazaspiro[5.5]undecan-9-yl)ethoxy)benzylamino)ethyl)benzo[d]thiazol-2(3H)-one formate]
